Data taken from US5591741A, “Fungicidal spiroheterocyclic derivatives” (American Cyanamid Company, priority 1993, dated 1997).

Legend:
Plasmopara viticola = experiment: Antisporulant activity against vine downy mildew (PVA); type: in vivo; conditions: vine leaves, antisporulant foliar spray, 600 ppm, 750 l/ha
Procedure, shortened: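 Cabernet Sauvignon vines (~8 cm) inoculated on lower leaf surfaces with 5×10^4 zoosporangia/ml, held 24 h at 21° C high humidity then 24 h glasshouse. Infected leaves sprayed underside with 600 ppm compound in 1:1 water/acetone, 0.04% Tween 20, 750 l/ha; 96 h glasshouse, 24 h humidity. Sporulating leaf area rated versus control.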

Alternaria solani = experiment: Activity against tomato early blight (AS); type: in vivo; conditions: Table VI; tomato seedlings, contact prophylactic foliar spray, 4 days
Procedure, shortened: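 Foliar contact prophylactic spray on tomato seedlings (cv Outdoor Girl, second true leaf expanded) in acetone/water 50:50 with 0.04% Tween 20; 24 h at 20° C, 40% R.H., then inoculation with 10^4 spores/ml A. solani conidia. Kept moist at 21° C; lesion cover rated 4 days post-inoculation against untreated or diluent-sprayed controls.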

Botrytis cinerea = experiment: Direct protectant activity against broad bean grey mould (BCB); type: in vivo; conditions: direct protectant foliar spray, 600 ppm, 4 days
Procedure, shortened: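 Broad bean plants (cv The Sutton, two leaf pairs) sprayed on upper leaf surfaces at 600 ppm, then inoculated 24 h later with 10^6 conidia/ml. Kept 4 days at 22 °C, high humidity; disease control rated from % leaf area with lesions against untreated or diluent controls.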

Leptosphaeria nodorum = experiment: Activity against wheat leafspot (LN); type: in vivo; conditions: direct therapeutic foliar spray, 600 ppm, 6-8 days
Procedure, shortened: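 Wheat cv Norman at single-leaf stage spray-inoculated with 1.5×10^6 conidia/ml, held 24 h at high humidity, then sprayed therapeutically with test compound at 600 ppm. Kept 6-8 days at 22° C, 70% humidity; lesion density per leaf rated against untreated or diluent-sprayed controls.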

[1] = tested on: Erysiphe graminis f.sp. hordei; experiment: Activity against barley powdery mildew, direct therapeutic (EGT); type: in vivo; conditions: direct therapeutic foliar spray, 600 ppm, up to 7 days
Procedure, shortened: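 Barley seedlings (cv. Golden Promise, single-leaf stage) were dusted with mildew conidia one day before a therapeutic foliar spray of 600 ppm compound. Plants were kept at 18 °C and 40% humidity for up to 7 days, and sporulating leaf area was rated against untreated or diluent-sprayed controls.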

[2] = tested on: Erysiphe graminis f.sp. hordei; experiment: Direct protectant activity against barley powdery mildew (EGP); type: in vivo; conditions: direct protectant foliar spray, 8 days
Procedure, shortened: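 Barley seedlings (cv Golden Promise, single-leaf stage) were foliar-sprayed, held 24 h at 18 °C/40% RH, then dusted with mildew conidia. After 8 days at 18 °C/40% RH, sporulating leaf area was scored as a rating against untreated or diluent-sprayed controls.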

Phytophthora infestans = type: in vivo; conditions: tomato, direct protectant foliar spray
[3] = tested on: Pseudocercosporella herpotrichoides; experiment: Activity against wheat eyespot in-vitro (PHI); type: cell-based; conditions: 10 ppm, 10 days, 20° C., mycelial growth
Procedure, shortened: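 P. herpotrichoides mycelial fragments (5×10^4/ml) grown in half-strength PDB with compound at 10 ppm final, added from acetone. Incubated 10 days at 20 °C; mycelial growth rated against untreated or diluent controls.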

Rhizoctonia solani = experiment: Activity against Rhizoctonia in-vitro (RSI); type: cell-based; conditions: 10 ppm, 10 days, 20° C., mycelial growth
Procedure, shortened: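 R. solani mycelial fragments (5×10^4/ml) in half-strength Potato Dextrose Broth with compound added from acetone to 10 ppm final. Mycelial growth assessed after 10 days at 20° C, rated against untreated or diluent control.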

Venturia inaequalis = experiment: Activity against apple scab in-vitro (VII); type: cell-based; conditions: 10 ppm, 10 days, 20° C., mycelial growth
Procedure, shortened: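 Compound in acetone was tested at 10 ppm final in half-strength Potato Dextrose Broth inoculated with V. inaequalis mycelial fragments and spores at 5×10^4 propagules/ml. After 10 days at 20° C, mycelial growth was rated against untreated or diluent controls.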

Pyricularia oryzae = type: in vivo; conditions: rice seedlings, direct therapeutic foliar spray, 600 ppm, 4-5 days

CCC(CC)N(CC)C1COC2(CCC(C(C)(C)C)CC2)C1 (centres unmarked) [Compound 95]
2 (greater than 80% disease control): disease control rating EGT [1] | disease control rating EGP [2]
0 (less than 50% disease control): disease control rating PVA (Plasmopara viticola) | disease control rating AS (Alternaria solani) | disease control rating BCB (Botrytis cinerea) | disease control rating LN (Leptosphaeria nodorum) | disease control rating PIP (Phytophthora infestans) | disease control rating PHI [3] | disease control rating VII (Venturia inaequalis) | disease control rating PO (Pyricularia oryzae)
1 (about 50-80% disease control): disease control rating RSI (Rhizoctonia solani)

CCN(CC1CCCCC1)C1COC2(CCC(C(C)(C)C)CC2)C1 (centres unmarked) [Compound 92]
1 (about 50-80% disease control): disease control rating RSI (Rhizoctonia solani)
2 (greater than 80% disease control): disease control rating BCB (Botrytis cinerea) | disease control rating EGT [1] | disease control rating EGP [2] | disease control rating PIP (Phytophthora infestans)
0 (less than 50% disease control): disease control rating PVA (Plasmopara viticola) | disease control rating AS (Alternaria solani) | disease control rating LN (Leptosphaeria nodorum) | disease control rating PHI [3] | disease control rating VII (Venturia inaequalis) | disease control rating PO (Pyricularia oryzae)

CC(C)(C)NC1COC2(CCC(C(C)(C)C)CC2)C1 (centres unmarked) [Compound 81]
2 (greater than 80% disease control): disease control rating BCB (Botrytis cinerea) | disease control rating EGT [1] | disease control rating EGP [2] | disease control rating PIP (Phytophthora infestans)
0 (less than 50% disease control): disease control rating PVA (Plasmopara viticola) | disease control rating AS (Alternaria solani) | disease control rating LN (Leptosphaeria nodorum) | disease control rating PHI [3] | disease control rating RSI (Rhizoctonia solani) | disease control rating VII (Venturia inaequalis) | disease control rating PO (Pyricularia oryzae)

CCCCCN(CC(C)C)C1COC2(CCC(C(C)(C)C)CC2)C1 (centres unmarked) [Compound 75]
0 (less than 50% disease control): disease control rating PVA (Plasmopara viticola) | disease control rating AS (Alternaria solani) | disease control rating LN (Leptosphaeria nodorum) | disease control rating PIP (Phytophthora infestans) | disease control rating PHI [3] | disease control rating RSI (Rhizoctonia solani) | disease control rating VII (Venturia inaequalis) | disease control rating PO (Pyricularia oryzae)
2 (greater than 80% disease control): disease control rating BCB (Botrytis cinerea) | disease control rating EGT [1] | disease control rating EGP [2]

CCCCCCCCCCCCCCCCNC1COC2(CCC(C(C)(C)C)CC2)C1 (centres unmarked) [Compound 45]
2 (greater than 80% disease control): disease control rating EGT [1] | disease control rating EGP [2]
0 (less than 50% disease control): disease control rating PVA (Plasmopara viticola) | disease control rating AS (Alternaria solani) | disease control rating BCB (Botrytis cinerea) | disease control rating LN (Leptosphaeria nodorum) | disease control rating PIP (Phytophthora infestans) | disease control rating PHI [3] | disease control rating RSI (Rhizoctonia solani) | disease control rating VII (Venturia inaequalis) | disease control rating PO (Pyricularia oryzae)

CCCCCCNC1CC2(CCC(C(C)(C)C)CC2)OC1C (centres unmarked) [Compound 84]
2 (greater than 80% disease control): disease control rating EGT [1] | disease control rating EGP [2] | disease control rating PIP (Phytophthora infestans)
1 (about 50-80% disease control): disease control rating RSI (Rhizoctonia solani) | disease control rating VII (Venturia inaequalis)
0 (less than 50% disease control): disease control rating PVA (Plasmopara viticola) | disease control rating AS (Alternaria solani) | disease control rating BCB (Botrytis cinerea) | disease control rating LN (Leptosphaeria nodorum) | disease control rating PHI [3] | disease control rating PO (Pyricularia oryzae)

CCC(C)CC(C)NC1COC2(CCC(C(C)(C)C)CC2)C1 (centres unmarked) [Compound 112]
0 (less than 50% disease control): disease control rating PVA (Plasmopara viticola) | disease control rating AS (Alternaria solani) | disease control rating BCB (Botrytis cinerea) | disease control rating LN (Leptosphaeria nodorum) | disease control rating PO (Pyricularia oryzae)
2 (greater than 80% disease control): disease control rating EGT [1] | disease control rating EGP [2] | disease control rating PIP (Phytophthora infestans)
1 (about 50-80% disease control): disease control rating PHI [3] | disease control rating RSI (Rhizoctonia solani) | disease control rating VII (Venturia inaequalis)

CC1CCCCC1NC1COC2(CCC(C(C)(C)C)CC2)C1 (centres unmarked) [Compound 87]
0 (less than 50% disease control): disease control rating PVA (Plasmopara viticola) | disease control rating AS (Alternaria solani) | disease control rating BCB (Botrytis cinerea) | disease control rating LN (Leptosphaeria nodorum) | disease control rating PHI [3] | disease control rating PO (Pyricularia oryzae)
2 (greater than 80% disease control): disease control rating EGT [1] | disease control rating EGP [2] | disease control rating PIP (Phytophthora infestans)
1 (about 50-80% disease control): disease control rating RSI (Rhizoctonia solani) | disease control rating VII (Venturia inaequalis)

CC(C)NC1COC2(CCC(C(C)(C)C)CC2)C1 (centres unmarked) [Compound 63]
2 (greater than 80% disease control): disease control rating EGT [1] | disease control rating EGP [2]
0 (less than 50% disease control): disease control rating PVA (Plasmopara viticola) | disease control rating AS (Alternaria solani) | disease control rating BCB (Botrytis cinerea) | disease control rating LN (Leptosphaeria nodorum) | disease control rating PIP (Phytophthora infestans) | disease control rating PHI [3] | disease control rating RSI (Rhizoctonia solani) | disease control rating VII (Venturia inaequalis) | disease control rating PO (Pyricularia oryzae)

CCCCCCCCNCC1COC2(CCC(C(C)(C)C)CC2)C1 (centres unmarked) [Compound 183, 8-t-butyl-3-n-octylaminomethyl-1-oxaspiro(4,5)-decane]
0 (less than 50% disease control): disease control rating PVA (Plasmopara viticola) | disease control rating AS (Alternaria solani) | disease control rating BCB (Botrytis cinerea) | disease control rating LN (Leptosphaeria nodorum) | disease control rating PO (Pyricularia oryzae)
1 (about 50-80% disease control): disease control rating PIP (Phytophthora infestans) | disease control rating PHI [3]
2 (greater than 80% disease control): disease control rating EGT [1] | disease control rating EGP [2] | disease control rating RSI (Rhizoctonia solani) | disease control rating VII (Venturia inaequalis)
